Experimental findings from patent US20190060298A1, “NEW DRUG FOR THE TREATMENT AND/OR PREVENTION OF DEPRESSIVE DISORDERS” (SORBONNE UNIVERSITE, priority 2013, published 2019) are described below.

Structures are written as SMILES.

The test system of assay [1] is glutathione peroxidase (GPx). Description: Glutathione peroxidase activity in hippocampus. The format is in vivo, Sprague-Dawley rats. The settings on record: 288 μmol/kg/day, 15 days from D11; D31. The procedure: (§1) The right hippocampus was homogenized in ice-cold buffer (Tris-HCl 50 mM pH 7.5, 150 mM NaCl, 1 mM EDTA) and used for TBARS and glutathione peroxidase (GPx) assays.
(§2) For the TBARS assay, protease inhibitors (50 μl/ml), DOC (1%), SDS (0.1%) and Triton® X-100 (0.5%) were added immediately in ice-cold buffer. For the GPx assay, 0.1 M dithiothreitol was added immediately in ice-cold buffer. The homogenates were centrifuged and the supernatants were retained for analysis. Lipid peroxidation was assessed by measuring TBARS formation with a commercial assay kit (Cayman Chemical, Ann Arbor, Mich., USA), in accordance with the manufacturer's instructions. TBARS concentration was calculated from an MDA standard curve and normalized. Total GPx activity in the homogenate was measured in accordance with the kit manufacturer's instructions (Cayman Chemical, Ann Arbor, Mich., USA). GPx specific activity is expressed as nmoles of NADPH consumed per minute per mg of hippocampal tissue. No difference in hippocampal weight was observed between defeated, vulnerable, non-vulnerable and control animals.
(§3) Tempol (4-hydroxy-2,2,6,6-tetramethylpiperidine 1-oxyl), which was administered at a dose of 288 μmol/kg/day [Sigma-Aldrich, St Louis, Mo., USA]), was dissolved in distilled water and delivered via ALZET osmotic mini-pumps (2002, Charles River Laboratories, France). […]

In a further assay the test system is oxidative stress. Description: Oxidative stress state in hippocampus after chronic social defeat. It counts as in vivo, Sprague-Dawley rats. To be noted: vulnerable (V) rats; 288 μmol/kg/day via osmotic mini-pump for 15 days from D11; measured D31. As for the experimental part:
The social-defeat procedure (CSD) (D-3 to DO) was performed as previously described (see Becker et al., 2001; Blugeot et al., 2011).
Briefly, this procedure involved subjecting the same pairs of residents and intruders to four daily conditioning sessions. The 45-min conditioning sessions were divided into two consecutive periods. During period I (30 min), intruders were placed individually in a protective cage within the resident animal's home cage. The protective cage allowed unrestricted visual, auditory, and olfactory contact with the resident but prevented close physical contact. […]
The animals were decapitated and the left hippocampus was homogenized in ice-cold buffer (20 mM Hepes pH 7.2, 1 mM EGTA, 210 mM mannitol, 70 mM sucrose). […] Catalase and total SOD activities were immediately determined with commercially available kits (Cayman Chemical, Ann Arbor, Mich., USA), in accordance with the manufacturer's instructions. SOD and catalase specific activities are expressed as units per mg of hippocampus and as nmoles of formaldehyde formed per minute per mg of hippocampal tissue, respectively. […]
For the TBARS assay, protease inhibitors (50 μl/ml), DOC (1%), SDS (0.1%) and Triton® X-100 (0.5%) were added immediately in ice-cold buffer. […] TBARS concentration was calculated from an MDA standard curve and normalized. […]

The next assay deals with lipid peroxidation (MDA). Description: Lipid peroxidation (TBARS/MDA) in hippocampus. It counts as in vivo, Sprague-Dawley rats. To be noted: V rats; 288 μmol/kg/day, 15 days from D11; D31. The procedure:
as §1, §2, §3

A further assay concerns aconitase. As to the kind of experiment: Aconitase activity in hippocampus. The format is in vivo, Sprague-Dawley rats. The settings on record: V rats; 288 μmol/kg/day, 15 days from D11; D31. As for the experimental part: Rats were killed by decapitation and their right hippocampi were rapidly removed and homogenized in ice-cold buffer (5 mM Tris-HCl pH 7.5, 210 mM mannitol, 70 mM sucrose, 1 mM EDTA and 2.3 mM sodium citrate). Homogenates were rapidly centrifuged (14,000×g, 10 min, 4° C.) and the pellets were immediately frozen in liquid nitrogen and stored at −80° C. Aconitase activity was measured spectrophotometrically (Gardner et al., 1994), by monitoring the linear absorbance change at 340 nm, at 25° C., in a 1.0-ml reaction mixture containing 50 mM Tris HCl (pH 7.5), 0.05% BSA, 2 mM sodium citrate, 2 mM MnCl2, 0.4 mM NADP+, 0.85 units of isocitrate dehydrogenase, and 10-20 μg of protein extract. The absorbance change associated with aconitase activity was linear with respect to time and protein concentration. One milliunit of aconitase activity was defined as the amount of enzyme catalyzing the formation of 1 nmol of D-isocitrate per min and per mg.
as §3

The subject of the next assay is Sprague-Dawley rats. Description: Sweet water consumption after sensitization paradigm. The format is in vivo. The settings on record: V animals; TEMPOL 288 μmol/kg/day 15 days from D11; after three weeks of CMS applied at D31. The procedure: Sprague-Dawley rats were subjected to chronic social defeat (CSD) and then, four weeks later, to three weeks of chronic mild stress (SSP rats). The chronic mild stress protocol (CMS) was performed as previously described (see Blugeot et al., 2011). The control rats were control intruders (not subjected to CSD) not exposed to the three weeks of CMS (C rats).
The CMS protocol is derived from that described by Willner et al. (1992). Briefly, various mild stresses were applied every day, over a period of three weeks. Briefly, from Monday to Friday, every morning, animals were placed in a small cage (10×16×15 cm) for 1 hour. In the afternoon, they were shaken for 10 min (Monday and Thursday), placed in a small cage containing water (2 cm high, Tuesday) or placed in another cage for 4 hours (Wednesday and Friday). Every night, the cage was inclined (45°, Tuesday and Thursday) or contained wet bedding (Wednesday and Friday). On Saturday and Sunday, the rats were subjected to a reversed dark/light cycle for 30 min, every three hours.
Experiments were performed as described by Becker et al. (2008) and Blugeot et al. (2011). Sucrose and water intakes were measured daily at 9:00 am. Weekly sweet water consumption was expressed as a percentage of control values (measured one week before the beginning of the conditioning sessions). Sweet water consumption indicated a preference for sucrose. […]

On to `CC1(C)CC(O)CC(C)(C)N1[O]` [TEMPOL, 4-hydroxy-2,2,6,6-tetramethylpiperidin-1-oxyl], for which the “glutathione peroxidase (GPx) activity” value in assay [1] is “mild effect”. Moreover, the oxidative stress result in the assay on oxidative stress was “decreased the oxidative stress in V animals”. Also, the “lipid peroxidation (MDA)” value in the assay on lipid peroxidation (MDA) is given as “lack of”. Further, the aconitase activity entry in the assay with aconitase is reported as “lack of aconitase activity dysfunction”. Further, in the assay with Sprague-Dawley rats, the sweet water consumption result is “prevented”.
